Measured values taken from patent US11642336B2, “5-HT2A agonists for use in treatment of depression” (priority 2019, dated 2023).
Where a name gives a salt, the structure may show the parent alone. Read-outs that look alike come from different tables or passages of the source. Marks after values point to notes of the source that are not given here.

Experiments:
Assay type in all cases: cell-based
[1] = target: T1, human 5-HT2A (Homo sapiens (Human), UniProt P28223); test: cell-based; conditions: IP assay; for 5-HT2A Rmax: % of Rmax of 5-HT; for EC50: duplicate determinations
[2] = target: T1, human 5-HT2A; test: cell-based; conditions: for 5-HT2A Rmax ± S.E.M: % of the Rmax of 5-HT; for Selectivity EC50 5-HT2C/EC50 5-HT2A: Ca2+/Fluo-4 assay, bounds are conservative estimates; for EC50: agonist potency, n = 3-4
[3] = target: 5-HT2C (Homo sapiens (Human), UniProt P28335); test: Ca2+/Fluo-4 assay, stable h5-HT2C-HEK293 cell line; conditions: for 5-HT2C Rmax ± S.E.M: % of the Rmax of 5-HT; for EC50: agonist potency, n = 3-4; for 5-HT2C agonist activity (n.a./w.a.): tested up to 50 μM;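 on all read-outs here: Agonist-induced intracellular Ca2+ rise read by Fluo-4 fluorescence in HEK293 cells stably expressing the human 5-HT2C receptor, each compound run in duplicate on three or more occasions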
[4] = target: 5-HT2B (Homo sapiens (Human), UniProt P41595); test: IP assay (Eurofins, IP1 HTRF), HEK293 cells; conditions: for 5-HT2B Rmax: % of Rmax of 5-HT; for Selectivity EC50 5-HT2B/EC50 5-HT2A: bounds are conservative estimates; for EC50: duplicate determinations, read-out: 5-HT2B EC50;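 on all read-outs here: agonist effect read as cellular IP1 production by HTRF using a europium cryptate anti-IP1 antibody donor and D2-labeled IP1 acceptor, eight compound concentrations in each cell line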
Experimental: The agonist properties of the compounds were characterized at HEK293 cell lines expressing the human 5-HT2A, human 5-HT2B or human 5-HT2C receptors in an IP assay essentially as previously described.^19 The testing was performed by Eurofins. In the assay, the agonist activity of the compound at the receptors is investigated by measuring its effect on IP1 production in the cell using the Homogeneous Time Resolved Fluorescence (HTRF) detection method. […] Following incubation, the cells were lysed, and the fluorescence acceptor (D2-labeled IP1) and fluorescence donor (anti-IP1 antibody labeled with europium cryptate) were added. […] The test compounds were characterized in eight different concentrations in duplicate at each of the three cell lines.

[5] = read-out: 5-HT2A [pEC50 ± S.E.M.] (converted)
[6] = read-out: 5-HT2C [pEC50 ± S.E.M.] (converted)

5-HT2C, sequence (P28335 whole entry, looked up): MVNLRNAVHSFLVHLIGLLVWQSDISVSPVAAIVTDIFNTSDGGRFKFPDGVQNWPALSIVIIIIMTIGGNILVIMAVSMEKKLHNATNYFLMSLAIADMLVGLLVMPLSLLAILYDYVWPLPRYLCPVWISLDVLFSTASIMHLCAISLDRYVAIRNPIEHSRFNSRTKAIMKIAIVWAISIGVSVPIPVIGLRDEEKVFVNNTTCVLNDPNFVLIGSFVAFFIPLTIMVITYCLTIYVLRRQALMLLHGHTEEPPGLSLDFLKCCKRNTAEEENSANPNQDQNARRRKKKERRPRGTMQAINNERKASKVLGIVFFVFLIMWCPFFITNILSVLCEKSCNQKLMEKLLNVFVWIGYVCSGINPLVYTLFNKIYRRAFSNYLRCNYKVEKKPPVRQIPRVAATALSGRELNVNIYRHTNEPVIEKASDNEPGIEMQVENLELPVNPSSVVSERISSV
5-HT2B, sequence (P41595 whole entry, looked up): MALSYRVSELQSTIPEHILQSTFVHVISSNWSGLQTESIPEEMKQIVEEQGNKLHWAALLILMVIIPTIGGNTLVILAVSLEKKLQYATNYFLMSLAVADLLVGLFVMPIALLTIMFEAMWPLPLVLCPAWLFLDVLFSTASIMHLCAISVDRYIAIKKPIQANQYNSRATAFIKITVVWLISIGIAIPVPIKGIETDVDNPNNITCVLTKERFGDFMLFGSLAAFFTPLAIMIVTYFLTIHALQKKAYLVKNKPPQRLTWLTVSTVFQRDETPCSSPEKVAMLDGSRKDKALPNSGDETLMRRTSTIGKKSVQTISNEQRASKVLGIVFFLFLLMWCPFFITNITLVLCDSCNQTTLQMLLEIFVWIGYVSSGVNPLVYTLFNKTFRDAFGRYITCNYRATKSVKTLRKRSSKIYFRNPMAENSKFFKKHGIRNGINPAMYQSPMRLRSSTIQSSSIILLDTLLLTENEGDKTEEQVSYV

| Compound | 5-HT2A Rmax [1] [%] | EC50 [1] [nM] | 5-HT2A Rmax ± S.E.M [2] [%] | Selectivity EC50 5-HT2C/EC50 5-HT2A [2] | EC50 [2, 5] [nM] | 5-HT2C Rmax ± S.E.M [3] [%] | EC50 ([3]; read-out: 5-HT2C EC50) [nM] | EC50 [3, 6] [nM] | 5-HT2B Rmax [4] [%] | Selectivity EC50 5-HT2B/EC50 5-HT2A [4] | EC50 [4] [nM] | EC50 ([2]; read-out: 5-HT2A EC50) [nM] | 5-HT2A Rmax ([1]; hydrochloride) [%] | 5-HT2A Rmax ± S.E.M ([2]; hydrochloride) [%] | Selectivity EC50 5-HT2C/EC50 5-HT2A ([2]; hydrochloride) | 5-HT2B Rmax ([4]; hydrochloride) [%] | Selectivity EC50 5-HT2B/EC50 5-HT2A ([4]; hydrochloride) | 5-HT2C agonist activity (n.a./w.a.) [3] |
| --- | --- | --- | --- | --- | --- | --- | --- | --- | --- | --- | --- | --- | --- | --- | --- | --- | --- | --- |
| CCSc1cc([C@@H]2CCCNC2)c(OC)cc1C(F)(F)F.Cl [Compound 47, (S)-3-(2-methoxy-5-(ethylthio)-4-(trifluoromethyl)phenyl)piperidine Hydrochloride] | 95 | 130 | 96 ± 3 | 17 | 26.3 | 43 ± 6 | 450 | 457 | 49 | 4.8 | 620 | – | – | – | – | – | – | – |
| CCc1cc(OC)c([C@@H]2CCCNC2)cc1OC.Cl [Compound 32, (S)-3-(4-ethyl-2,5-dimethoxyphenyl)piperidine hydrochloride] | 85 | 110 | 79 ± 4 | – | 40.7 | – | – | – | 54 | – | 280 | – | – | – | – | – | – | – |
| CCOc1cc([C@@H]2CCCNC2)c(OC)cc1CC.Cl [Compound 34, (S)-3-(5-ethoxy-4-ethyl-2-methoxyphenyl)piperidine hydrochloride] | 78 | 160 | 88 ± 4 | 16 | 51.3 | 28 ± 4 | 840 | – | 50 | 5.4 | 860 | 52 | – | – | – | – | – | – |
| COc1cc(C(F)(F)F)c(OC)cc1C1CCC(C)NC1 (single isomer, unassigned) [Compound 37, 5-(2,5-dimethoxy-4-(trifluoromethyl)phenyl)-2-methylpiperidine hydrochloride] | – | 1500 | – | – | 263 | 33 ± 5 | 3400 | – | – | – | 620 | 270 | 110 | 90 ± 10 | 13 | 54 | 0.4 | – |
| CCCCc1cc(OC)c([C@@H]2CCCNC2)cc1OC [Compound 57, (S)-3-(4-butyl-2,5-dimethoxyphenyl)piperidine hydrochloride] | 62 | 190 | – | – | – | – | – | – | 18 | – | 350 | 270 | – | – | – | – | – | w.a. |
| COc1cc(C(F)(F)F)c(OC)cc1C1CCC(C)NC1 (single isomer, unassigned) [Compound 38, 5-(2,5-dimethoxy-4-(trifluoromethyl)phenyl)-2-methylpiperidine hydrochloride] | – | 120 | – | – | 155 | – | – | – | – | – | 2200 | 160 | 60 | 38 ± 4 | >300^e | 29 | 18 | w.a. |
| COc1cc([C@@H]2CCCNC2)c(OC)cc1C#N [Compound 16, (S)-2,5-dimethoxy-4-(piperidin-3-yl)benzonitrile] | 77 | 980 | – | – | 275 | – | > 50000 | – | 45 | – | 5000 | 270 | – | – | – | – | – | – |
| CCSc1cc(OC)c([C@@H]2CCCNC2)cc1OC.Cl [Compound 28, (S)-3-(2,5-dimethoxy-4-(ethylthio)phenyl)piperidine hydrochloride] | 62 | 180 | – | – | – | – | – | – | 55 | – | 240 | – | – | – | – | – | – | – |
| COc1cc([C@@H]2CCCNC2)c(OC)cc1Br [Compound 12, (S)-3-(4-bromo-2,5-dimethoxyphenyl)piperidine] | 70 | 250 | – | – | – | – | > 50000 | – | 48 | – | 190 | 69 | – | – | – | – | – | – |
| COc1cc(C(F)(F)F)c(OC)cc1C1CCCNC1C.Cl (centres unmarked) [Compound 35, 3-(2,5-dimethoxy-4-(trifluoromethyl)phenyl)-2-methylpiperidine hydrochloride] | 70 | 260 | 75 ± 4 | 41 | – | 21 ± 2 | 3000 | 2950 | 28 | 3.3 | 850 | 73 | – | – | – | – | – | – |
| CCOc1cc(C(F)(F)F)c(OC)cc1[C@@H]1CCCNC1.Cl [Compound 30, (S)-3-(2-ethoxy-5-methoxy-4-(trifluoromethyl)phenyl)piperidine hydrochloride] | 35 | 140 | 40 ± 3 | – | 38 | – | – | – | 26 | – | 1200 | – | – | – | – | – | – | – |
